Experiments:
Assay in all cases: relative viability (nuclei count vs DMSO), 5 days (fraction); higher = more cells survive
H3255 = test system: H3255
Summary of the method: (§1)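 Relative viability is defined as nuclei in treated wells over nuclei in vehicle wells. Duplicate plates were run and medians reported. Lung cancer cell lines in 1536-well plates were dosed by pin tool one day after seeding, with one drug or with a fixed anchor-drug dose plus five library-drug doses (not always all listed) in √10 steps, and nuclei were counted after 5 days.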

COR-L 105 = test system: COR-L 105
Summary of the method: as §1

NCI-H1975 = test system: NCI-H1975
Summary of the method: as §1

ABC-1 = test system: ABC-1
Summary of the method: as §1

NCI-H441 = test system: NCI-H441
Summary of the method: as §1

ChaGo-K-1 = test system: ChaGo-K-1
Summary of the method: as §1

HCC-827 = test system: HCC-827
Summary of the method: as §1

NCI-H1792 = test system: NCI-H1792
Summary of the method: as §1

NCI-H2085 = test system: NCI-H2085
Summary of the method: as §1

NCI-H1355 = test system: NCI-H1355
Summary of the method: as §1

NCI-H2228 = test system: NCI-H2228
Summary of the method: as §1

Cc1cn(-c2cc(NC(=O)c3ccc(C)c(Nc4nccc(-c5cccnc5)n4)c3)cc(C(F)(F)F)c2)cn1 [Nilotinib] + CCNC(=O)c1noc(-c2cc(C(C)C)c(O)cc2O)c1-c1ccc(CN2CCOCC2)cc1 [Luminespib] (partner 0.01 µM)
relative viability (H3255; first compound 0.001 µM): 0.9
relative viability (H3255; first compound 0.003162 µM): 0.733
relative viability (H3255; first compound 0.03162 µM): 0.922
relative viability (H3255; first compound 0.1 µM): 0.325
relative viability (COR-L 105; first compound 0.001 µM): 0.764
relative viability (COR-L 105; first compound 0.003162 µM): 0.711
relative viability (COR-L 105; first compound 0.01 µM): 0.75
relative viability (COR-L 105; first compound 0.03162 µM): 0.698
relative viability (COR-L 105; first compound 0.1 µM): 0.853
relative viability (NCI-H1975; first compound 0.001 µM): 0.212
relative viability (NCI-H1975; first compound 0.003162 µM): 0.143
relative viability (NCI-H1975; first compound 0.01 µM): 0.171
relative viability (NCI-H1975; first compound 0.03162 µM): 0.205
relative viability (NCI-H1975; first compound 0.1 µM): 0.138
relative viability (ABC-1; first compound 0.001 µM): 0.508
relative viability (ABC-1; first compound 0.003162 µM): 0.227
relative viability (ABC-1; first compound 0.01 µM): 0.554
relative viability (ABC-1; first compound 0.03162 µM): 1.28
relative viability (ABC-1; first compound 0.1 µM): 0.252
relative viability (NCI-H441; first compound 0.001 µM): 0.33
relative viability (NCI-H441; first compound 0.003162 µM): 0.375
relative viability (NCI-H441; first compound 0.01 µM): 0.322
relative viability (NCI-H441; first compound 0.03162 µM): 0.413
relative viability (NCI-H441; first compound 0.1 µM): 0.304
relative viability (ChaGo-K-1; first compound 0.001 µM): 0.416
relative viability (ChaGo-K-1; first compound 0.003162 µM): 0.48
relative viability (ChaGo-K-1; first compound 0.01 µM): 1.01
relative viability (ChaGo-K-1; first compound 0.03162 µM): 0.531
relative viability (ChaGo-K-1; first compound 0.1 µM): 0.666
relative viability (HCC-827; first compound 0.003162 µM): 0.634
relative viability (HCC-827; first compound 0.01 µM): 0.721
relative viability (HCC-827; first compound 0.03162 µM): 0.563
relative viability (HCC-827; first compound 0.1 µM): 0.542
relative viability (NCI-H1792; first compound 0.003162 µM): 0.417
relative viability (NCI-H1792; first compound 0.01 µM): 0.545
relative viability (NCI-H1792; first compound 0.1 µM): 0.266
relative viability (NCI-H2085; first compound 0.001 µM): 0.392
relative viability (NCI-H2085; first compound 0.003162 µM): 0.46
relative viability (NCI-H2085; first compound 0.01 µM): 0.427
relative viability (NCI-H2085; first compound 0.03162 µM): 0.375
relative viability (NCI-H2085; first compound 0.1 µM): 0.382
relative viability (NCI-H1355; first compound 0.001 µM): 0.542
relative viability (NCI-H1355; first compound 0.003162 µM): 0.7
relative viability (NCI-H1355; first compound 0.01 µM): 0.644
relative viability (NCI-H1355; first compound 0.03162 µM): 0.549
relative viability (NCI-H1355; first compound 0.1 µM): 0.654
relative viability (NCI-H2228; first compound 0.003162 µM): 0.161
relative viability (NCI-H2228; first compound 0.01 µM): 0.183
relative viability (NCI-H2228; first compound 0.03162 µM): 0.151
relative viability (NCI-H2228; first compound 0.1 µM): 0.0953

— the supplement of paper PMC10307832
